Laboratory results published in US20190336579A1, “COMPOSITIONS AND METHODS TO INDUCE TARGETED APOPTOSIS BY MODULATING PROTEIN TYROSINE PHOSPHATASE 13 (PTPN13)” (National Jewish Health, priority 2010, published 2019).

Tests used:
[1] = system: Fas phospho-Y291; experiment: Western blot of Fas tyrosine 291 phosphorylation in MRC5 lung fibroblasts; format: cell-based, human; conditions: pervanadate 150 μM, time dependent
Protocol: PTPN13 has been shown in astrocytoma cells to dephosphorylate Fas at tyrosine 291. Little is known about the regulatory function of tyrosine phosphorylation of Fas. In another exemplary embodiment, to assess the effect of TNF-α and IFN-γ sensitization on the levels of Fas tyrosine phosphorylation, MRC5 lung fibroblasts were treated with TNF-α and IFN-γ for increasing amounts of time. Because TNF-α is known to increase tyrosine phosphorylation of many proteins, such as MAP kinases and AKT, within minutes following stimulation, the kinetics of TNF-α and IFN-γ induced tyrosine phosphorylation of Fas were assessed. MRC5 lung fibroblasts were treated with TNF-α (10 ng/ml) and IFN-γ (50 U/ml) for up to 48 hours. The cells were lysed and analyzed by western blot for phosphorylated Fas, using a phospho-specific antibody for Fas phosho-Y291. TNF-α and IFN-γ increased tyrosine phosphorylation of Fas at tyrosine residue 291 beginning at 18 hours. […] The pervanadate treated MRC5 cells were lysed and analyzed the tyrosine phosphorylation of Fas by western blotting. […] We then detected phosphorylated Fas by Western blot, using a phospho-specific antibody for Fas tyrosine residue 291. […]
FIG. 5: Inhibition of tyrosine phosphatase activity sensitizes lung fibroblasts to Fas-induced apoptosis. […] Caspase-8 activation was measured by a fluorescence based assay. […]

[2] = system: caspase-8; experiment: Caspase-8 activation (Fas-induced apoptosis) in lung fibroblasts; format: cell-based, human; conditions: MRC5
Protocol: To assess the effects of these cytokines on PTPN13 expression, non-diseased normal human lung fibroblasts (NHLF), fibrotic human lung fibroblasts (FHLF) and a fetal lung fibroblast cell line, MRC5 cells, were treated with TNF-α (10/ng/ml), IFN-γ (50 U/ml) or with both cytokines for 6 hours. PTPN13 expression was measured by quantitative PCR (FIG. 2A). The primary lung fibroblasts from normal and fibrotic lung had equivalent levels of PTPN13 expression to the MRC5 lung fibroblast cell line. […] Treatment with TNF-α alone caused a 40% decrease in PTPN13 expression. Combined exposure to TNF-α and IFN-γ decreased PTPN13 mRNA expression by 80%. Protein lysates from normal, fibrotic and MRC5 fibroblasts treated for 36 hours with TNF-α (10/ng/ml), IFN-γ (50 U/ml) or with both cytokines were then analyzed for PTPN13 expression. […]
In one exemplary method, to assess whether PTPN13 expression prevents Fas-induced apoptosis, PTPN13 expression was knocked-down using siRNA. […] Apoptosis was assayed by quantifying activation of caspase-3 and caspase-8 (FIG. 3C).
In death-receptor mediated apoptosis, formation of the DISC (Death-Inducing Signaling Complex) is essential for the initiation of apoptosis. […] The cells were lysed, immunoprecipitated with anti-Fas antibody, and co-immunoprecipitated FADD and caspase-8 were detected by immunoblotting. […]

pervanadate
tyrosine phosphorylation of Fas [1]: increased | increase in caspase-8 activity over unstimulated cells ([2]; 150 μM pervanadate 2 hour pre-treatment, then Fas-activating antibody 250 ng/ml): 6 fold | increase in caspase-8 activity above untreated cells ([2]; 150 μM pervanadate alone): 2 fold
